Where a name gives a salt, the structure may show the parent alone.
Columns and labels:
BIR2 domain of XIAP = BIR2 domain of XIAP (Homo sapiens (Human), UniProt P98170, C202A/C213G); experiment: TR-FRET assay for BIR2 (inhibition of binding of XIAP BIR2 domain to SMAC-derived Peptide A); details: 6x His-tagged BIR2 domain (aa 124-240 of XIAP) 10 nM, Peptide A 20 nM, TR-FRET; read-out: IC50 BIR2
BIR3 domain of XIAP = BIR3 domain of XIAP (Homo sapiens (Human), UniProt P98170); experiment: TR-FRET assay for BIR3 (inhibition of binding of XIAP BIR3 domain to SMAC-derived Peptide A); details: 6x His-tagged BIR3 domain (aa 241-356 of XIAP) 10 nM, Peptide A 20 nM, TR-FRET
Chain of BIR3 domain of XIAP (P98170 241-356 with tags or gaps limits assumed): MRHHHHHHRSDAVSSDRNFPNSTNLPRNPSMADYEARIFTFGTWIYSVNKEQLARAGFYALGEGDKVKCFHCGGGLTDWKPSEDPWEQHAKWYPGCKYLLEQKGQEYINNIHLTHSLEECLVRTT

Chain of BIR2 domain of XIAP (P98170 124-240 with tags or gaps C202A/C213G limits assumed): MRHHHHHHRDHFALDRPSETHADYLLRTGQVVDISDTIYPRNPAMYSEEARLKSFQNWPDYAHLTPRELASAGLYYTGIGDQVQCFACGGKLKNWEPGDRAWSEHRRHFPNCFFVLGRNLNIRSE

SMILES	IC50 (BIR2 domain of XIAP) [nM]	IC50 (BIR3 domain of XIAP) [nM]
CN[C@@H](C)C(=O)N[C@H]1CN(C(=O)c2ccc3cn[nH]c3c2)c2ccccc2N(Cc2c(C)ccc3ccccc23)C1=O [Example 158, (2S)-N-[(3S)-1-(1H-indazole-6-carbonyl)-5-[(2-methylnaphthalen-1-yl)methyl]-4-oxo-2,3-dihydro-1,5-benzodiazepin-3-yl]-2-(methylamino)propanamide]	18.2	> 54800
CN[C@@H](C)C(=O)N[C@H]1CN(C(=O)c2ccc(C(C)=O)cc2)c2cc(C#N)ccc2N(Cc2nn(-c3ccccc3C#N)c3ccccc23)C1=O [Example 162, (S)-N-((S)-5-(4-acetylbenzoyl)-7-cyano-1-((1-(2-cyanophenyl)-1H-indazol-3-yl)methyl)-2-oxo-2,3,4,5-tetrahydro-1H-benzo[b][1,4]diazepin-3-yl)-2-(methylamino)propanamide hydrochloride]	18.3	> 54800
CN[C@@H](C)C(=O)N[C@H]1CNc2cc(C#N)ccc2N(Cc2nn(-c3ccccc3C#N)c3ccccc23)C1=O [Example 168, (S)-N-((S)-7-cyano-1-((1-(2-cyanophenyl)-1H-indazol-3-yl)methyl)-2-oxo-2,3,4,5-tetrahydro-1H-benzo[b][1,4]diazepin-3-yl)-2-(methylamino)propanamide dihydrochloride]	95.7	> 54800
CN[C@@H](C)C(=O)N[C@H]1CN(C(C)=O)c2cc(C#N)ccc2N(Cc2nn(-c3ccccc3C#N)c3ccccc23)C1=O [Example 169, (S)-N-((S)-5-acetyl-7-cyano-1-((1-(2-cyanophenyl)-1H-indazol-3-yl)methyl)-2-oxo-2,3,4,5-tetrahydro-1H-benzo[b][1,4]diazepin-3-yl)-2-(methylamino)propanamide hydrochloride]	33.2	> 54800
CN[C@@H](C)C(=O)N[C@H]1CN(C(=O)C2CCOCC2)c2cc(C#N)ccc2N(Cc2nn(-c3ccccc3C#N)c3ccccc23)C1=O [Example 170, (S)-N-((S)-7-cyano-1-((1-(2-cyanophenyl)-1H-indazol-3-yl)methyl)-2-oxo-5-(tetrahydro-2H-pyran-4-carbonyl)-2,3,4,5-tetrahydro-1H-benzo[b][1,4]diazepin-3-yl)-2-(methylamino)propanamide hydrochloride]	25.5	> 54800
CN[C@@H](C)C(=O)N[C@H]1CN(C(=O)c2ccncc2)c2cc(C#N)ccc2N(Cc2nn(-c3ccccc3C#N)c3ccccc23)C1=O [Example 174, (S)-N-((S)-7-cyano-1-((1-(2-cyanophenyl)-1H-indazol-3-yl)methyl)-5-isonicotinoyl-2-oxo-2,3,4,5-tetrahydro-1H-benzo[b][1,4]diazepin-3-yl)-2-(methylamino)propanamide dihydrochloride]	22.4	> 54800
CN[C@@H](C)C(=O)N[C@H]1CN(C(C)=O)c2cc(C(F)(F)F)ccc2N(Cc2nn(-c3ccccc3C#N)c3ccccc23)C1=O [Example 177, (S)-N-((S)-5-acetyl-1-((1-(2-cyanophenyl)-1H-indazol-3-yl)methyl)-2-oxo-7-(trifluoromethyl)-2,3,4,5-tetrahydro-1H-benzo[b][1,4]diazepin-3-yl)-2-(methylamino)propanamide hydrochloride]	35.3	> 54800
CN[C@@H](C)C(=O)N[C@H]1CN(C(=O)c2ccc(N)cc2)c2ccccc2N(Cc2c(OCCF)ccc3ccccc23)C1=O [Example 178, (2S)-N-[(3S)-1-(4-aminobenzoyl)-5-[[2-(2-fluoroethoxy)naphthalen-1-yl]methyl]-4-oxo-2,3-dihydro-1,5-benzodiazepin-3-yl]-2-(methylamino)propanamide;hydrochloride]	14.2	16100
CN[C@@H](C)C(=O)N[C@H]1CN(C(=O)C2CCOCC2)c2cc(C#N)ccc2N(Cc2c(C3CC3)cnc3ccccc23)C1=O [Example 180, (S)-N-((S)-7-cyano-1-((3-cyclopropylquinolin-4-yl)methyl)-2-oxo-5-(telrahydro-2H-pyran-4-carbonyl)-2,3,4,5-tetrahydro-1H-benzo[b][1,4]diazepin-3-yl)-2-(methylamino)propanamide]	18	16500
CN[C@@H](C)C(=O)N[C@H]1CN(C(=O)C2CCOCC2)c2cc(C(F)(F)F)ccc2N(Cc2c(C3CC3)cnc3ccccc23)C1=O [Example 184, (S)-N-((S)-1-((3-cyclopropylquinolin-4-yl)methyl)-2-oxo-5-(tetrahydro-2H-pyran-4-carbonyl)-7-(trifluoromethyr)-2,3,4,5-tetrahydro-1H-benzo[b][1,4]diazepin-3-yl)-2-(methylamino)propanamide]	18.3	15200
CN[C@@H](C)C(=O)N[C@H]1CN(C(C)=O)c2cc(C(F)(F)F)ccc2N(Cc2c(C3CC3)ccc3c(C#N)cccc23)C1=O [Example 189, (S)-N-((S)-5-acetyl-1-((5-cyano-2-cyclopropylnaphthalen-1-yl)methyl)-2-oxo-7-(trifluoromethyl)-2,3,4,5-tetrahydro-1H-benzo[b][1,4]diazepin-3-yl)-2-(methylamino)propanamide]	30.4	29300

The next lines start with the values.

IC50 (BIR2 domain of XIAP) [nM]	IC50 (BIR3 domain of XIAP) [nM]	SMILES
16.1	> 54800	CN[C@@H](C)C(=O)N[C@H]1CN(C(=O)CS(C)(=O)=O)c2cc(C#N)ccc2N(Cc2c(OC)ccc3c(Br)cccc23)C1=O [Example 160, (S)-N-((S)-1-((5-bromo-2-methoxynaphthalen-1-yl)methyl)-7-cyano-5-(2-(methylsulfonyl)acetyl)-2-oxo-2,3,4,5-tetrahydro-1H-benzo[b][1,4]diazepin-3-yl)-2-(methylamino)propanamide hydrochloride]
53.9	> 54800	CN[C@@H](C)C(=O)N[C@H]1CN(C(=O)CS(C)(=O)=O)c2cc(C#N)ccc2N(Cc2nn(-c3ccccc3C#N)c3ccccc23)C1=O [Example 161, (2S)-N-[(3S)-7-cyano-1-[[1-(2-cyanophenyl)indazol-3-yl]methyl]-5-(2-methylsulfonylacetyl)-2-oxo-3,4-dihydro-1,5-benzodiazepin-3-yl]-2-(methylamino)propanamide;2,2,2-trifluoroacetic acid]
20	43600	CN[C@@H](C)C(=O)N[C@H]1CN(C(=O)CS(C)(=O)=O)c2cc(C#N)ccc2N(Cc2c(OC)ccc3ccccc23)C1=O [Example 166, (S)-N-((S)-7-cyano-1-((2-methoxynaphthalen-1-yl)methyl)-5-(2-(methylsulfonyl)acetyl)-2-oxo-2,3,4,5-tetrahydro-1H-benzo[b][1,4]diazepin-3-yl)-2-(methylamino)propanamide hydrochloride]
30.3	41200	CN[C@@H](C)C(=O)N[C@H]1CN(C(=O)CS(C)(=O)=O)c2ccc(C#N)cc2N(Cc2c(OC)ccc3ccccc23)C1=O [Example 171, (S)-N-((S)-8-cyano-1-((2-methoxynaphthalen-1-yl)methyl)-5-(2-(methylsulfonyl)acetyl)-2-oxo-2,3,4,5-tetrahydro-1H-benzo[b][1,4]diazepin-3-yl)-2-(methylamino)propanamide hydrochloride]
94.7	> 54800	CN[C@@H](C)C(=O)N[C@H]1CN(C(=O)CS(C)(=O)=O)c2ccc(C#N)cc2N(Cc2c(C)ccc3ccccc23)C1=O [Example 172, (S)-N-((S)-8-cyano-1-((2-methylnaphthalen-1-yl)methyl)-5-(2-(methylsulfonyl)acetyl)-2-oxo-2,3,4,5-tetrahydro-1H-benzo[b][1,4]diazepin-3-yl)-2-(methylamino)propanamide hydrochloride]
37.6	> 54800	CN[C@@H](C)C(=O)N[C@H]1CN(C(=O)CCOC)c2cc(C#N)ccc2N(Cc2nn(-c3ccccc3C#N)c3ccccc23)C1=O [Example 173, (S)-N-((S)-7-cyano-1-((1-(2-cyanophenyl)-1H-indazol-3-yl)methyl)-5-(3-methoxypropanoyl)-2-oxo-2,3,4,5-tetrahydro-1H-benzo[b][1,4]diazepin-3-yl)-2-(methylamino)propanamide hydrochloride]
38.2	25600	CN[C@@H](C)C(=O)N[C@H]1CN(C(C)=O)c2cc(C#N)ccc2N(Cc2c(C3CC3)ccc3c(C#N)cccc23)C1=O [Example 176, (S)-N-((S)-5-acetyl-7-cyano-1-((5-cyano-2-cyclopropylnaphthalen-1-yl)methyl)-2-oxo-2,3,4,5-tetrahydro-1H-benzo[b][1,4]diazepin-3-yl)-2-(methylamino)propanamide hydrochloride]
23.5	32400	CN[C@@H](C)C(=O)N[C@H]1CN(C(C)=O)c2cc(C#N)ccc2N(Cc2c(OC)ccc3c(C#N)cccc23)C1=O [Example 182, (S)-N-((S)-5-acetyl-7-cyano-1-((5-cyano-2-methoxynaphthalen-1-yl)methyl)-2-oxo-2,3,4,5-tetrahydro-1H-benzo[b][1,4]diazepin-3-yl)-2-(methylamino)propanamide]
49.3	34400	CN[C@@H](C)C(=O)N[C@H]1CN(C(=O)CS(C)(=O)=O)c2cc(C(F)(F)F)ccc2N(Cc2c(C3CC3)cnc3ccccc23)C1=O [Example 187, (S)-N-((S)-1-((3-cyclopropylquinolin-4-yl)methyl)-5-(2-(methylsulfonyl)acetyl)-2-oxo-7-(trifluoromethyl)-2,3,4,5-tetrahydro-1H-benzo[b][1,4]diazepin-3-yl)-2-(methylamino)propanamide]
22.5	25400	CN[C@@H](C)C(=O)N[C@H]1CN(C(=O)CCS(C)(=O)=O)c2cc(C(F)(F)F)ccc2N(Cc2c(C3CC3)cnc3ccccc23)C1=O [Example 188, (S)-N-((S)-1-((3-cyclopropylquinolin-4-yl)methyl)-5-(3-(methylsulfonyl)propanoyl)-2-oxo-7-(trifluoromethyl)-2,3,4,5-tetrahydro-1H-benzo[b][1,4]diazepin-3-yl)-2-(methylamino)propanamide]

Source: patent US10053431B2, “Tetrahydro-benzodiazepinones” (priority 2013, dated 2018)
